Source: publication PMC12214830, “The human RIF1-Long isoform interacts with BRCA1 to promote recombinational fork repair under DNA replication stress” (Nature Communications, 2025)

Legend:
Assay type in all cases: cell-based, human
[1] = tested on: GFP-RIF1-L-pp1bs foci; experiment: co-localisation of RIF1-L-pp1bs foci with BRCA1, γH2AX, RAD51, HeLa cells; conditions: HU 4 mM 24 h
Method: (§1) Cells were grown on glass coverslips and treated as desired. Cells were then permeabilized with 0.5% TritonX-100 in PBS for 7 min on ice, and fixed with 4% w/v formaldehyde solution (Sigma HT5012) for 10 min at room temperature (RT). After fixation, coverslips were blocked with 3% BSA in PBS (RT, 1 h), incubated with primary antibodies (RT, 2 h), washed with PBS three times and incubated with secondary antibodies (RT, 1 h). Primary antibodies used for immunofluorescence include anti-γH2A.X (20E3) (Cell Signalling Technology, 9718. 1:500); anti-RPA32/RPA2 (9H8) (Abcam, ab2175. 1:200); anti-RAD51 (H92) (Santa Cruz Biotechnology, sc-8349. 1:100); anti-BrdU (B44) (BD Biosciences, 347580. 1:100); Coverslips were then mounted on glass slides with mounting medium with DAPI. Images were captured by either standard (Zeiss Axio Imager) or confocal (Zeiss LSM-880) microscopy. Fluorescence signal intensities within each nucleus were analysed by CellProfiler software with custom-made pipelines. Co-localisation analyses were performed with custom-made CellProfiler pipelines. Briefly, nuclei were identified and used to create masks. Nuclear RIF1-L-pp1bs, BRCA1, γH2AX, RAD51 foci were identified as objects using Otsu thresholding. ‘Relate objects’ function (defining RIF1-L-pp1bs foci as parent object and foci of other proteins as children object) was used to measure the percentage of RIF1-L-pp1bs foci co-localised with other proteins.

[2] = tested on: RPA; experiment: chromatin-bound RPA immunofluorescence, RPE-1 cells; conditions: HU 4 mM 24 h
Method: as §1, with “Nuclear RIF1-L-pp1bs, BRCA1, γH2AX, RAD51 foci were identified as objects using Otsu thresholding. ‘Relate objects’ function (defining RIF1-L-pp1bs foci as parent object and foci of other proteins as children object) was used to measure the percentage of RIF1-L-pp1bs foci co-localised with other proteins.” left out

[3] = tested on: RIF1-L phosphoS2265; experiment: Western blot, RIF1-L phosphoS2265, HeLa cells; conditions: HU 4 mM 24 h
Method: Cells were harvested in 10 mM Tris-HCl pH 7.5, 2 mM EDTA buffer and lysed with laemmli sample buffer (Bio-Rad, 1610737, supplemented with 5% β-mercaptoethanol). Samples were heated at 95 °C for 15 min and centrifuged at 13,000 × g for 15 min. Protein concentrations were measured by RC DC Protein Assay (Bio-Rad, 5000122). Equal amounts of total proteins for each sample were separated in Mini-PROTEAN TGX Stain-free Precast Gels (Bio-Rad) by SDS-PAGE. Gels were at this stage imaged with the ChemiDoc Touch Imaging System (Bio-Rad) using the ‘Protein gel – Stain free’ module to obtain stain-free gel images. Proteins on gel were transferred to PVDF membranes (Bio-Rad, 1704274) using the Trans-Blot Turbo Blotting System (Bio-Rad). Membranes were blocked in 3% BSA in TBS-T (1x TBS supplemented with 0.1% Tween-20) at RT for 1 h, followed by incubation with primary antibodies overnight at 4 °C. Membranes were washed with TBS-T and then incubated with secondary antibodies for 1 h at RT. The blots were developed with Clarity ECL reagents (Bio-Rad, 1705060) and imaged with the ChemiDoc Touch Imaging System (Bio-Rad). Primary antibodies used for western blotting include anti-RIF1 (Bethyl Laboratories, A300-568A. 1:5000); anti-RIF1-L-Phospho-S2265 (amsbio, custom. 1:5000); anti-BRCA1 (D-9) (Santa Cruz Biotechnology, sc-6954. 1:1000); anti-BARD1 (Bethyl Laboratories, A300-263A. 1:1000); anti-53BP1 (Novus Biologicals, NB100-94. 1:5000); anti-PP1α (G4) (Santa Cruz Biotechnology, sc-271762. 1:1000); anti-Tubulin (YOL1/34) (Santa Cruz Biotechnology, sc-53030. 1:4000); anti-FLAG (M2) (Sigma-Aldrich, F1804. 1:2000); anti-GFP (Chromotek, 3h9. 1:2000); anti-RFP (Chromotek, 5f8. 1:2000). Uncropped and unprocessed Western Blot images are provided in the Source Data file.

[4] = tested on: RIF1-L interaction with BRCA1; experiment: RIF1-BRCA1 / RIF1-BRCA1-BRCT co-immunoprecipitation, Flp-In T-REx 293 cells; conditions: HU 4 mM, 4 h or 24 h; Fig. 5H, I
Method: For mCherry IP and GFP IP, cells were washed once with ice-cold TBS, lysed with IP lysis buffer (1X TBS, 0.5 mM EDTA, 1% CHAPS, 1 mM PMSF, 3 mM MgCl2, 1X Halt Protease & Phosphatase inhibitor), and incubated with 1 µl/ml Benzonase (Sigma-Aldrich, E1014) for 45 min at 4 °C with rotation. RFP-Trap or GFP-Trap Magnetic Agarose beads (Chromotek) were washed three times in IP buffer 1 (1X TBS, 0.5 mM EDTA) and then incubated with cell lysates for 1 h at 4 °C with rotation. Beads were next washed three times with IP washing buffer (1X TBS, 0.5 mM EDTA, 0.1% CHAPS, 1 mM PMSF, 250 mM NaCl, 1X Halt Protease & Phosphatase inhibitor), after which bead-bound proteins (IP fractions) were eluted by heating at 95 °C for 7 min. IP fractions were analysed by western blotting.
For FLAG IP, cell lysates were prepared in the same way. Dynabeads magnetic beads (Invitrogen) were incubated with […] anti-FLAG antibody (Sigma-Aldrich, F1804) in PBS supplemented with 0.02% Tween-20) for 10 min at RT with rotation. The antibody-bound beads were incubated with cell lysates for 1 h at 4 °C with rotation. Beads were then washed three times with PBS, after which bead-bound proteins (IP fractions) were eluted by heating at 95 °C for 7 min. IP fractions were analysed by western blotting.

NC(=O)NO [HU, hydroxyurea]
RIF1-L-pp1bs foci co-localised with RAD51 and BRCA1 [1]: ~ 20%
RIF1-L-pp1bs foci colocalised with both BRCA1 and γH2AX [1]: Approximately 40%
RIF1-L-pp1bs foci overlapping BRCA1 signal [1]: 50–60%
RIF1-L-pp1bs foci overlapping γH2AX foci [1]: ~ 50%
chromatin-bound RPA [2]: both increased upon HU treatment
RIF1-L phosphoS2265 western blot signal [3]: reduced RIF1-L phosphoS^2265 signal
RIF1-L interaction with BRCA1 [4]: increased RIF1-L interaction with BRCA1
